{"source": "patent US20050143363A1", "about": "“Method for subretinal administration of therapeutics including steroids; method for localizing pharmacodynamic action at the choroid of the retina; and related methods for treatment and/or prevention of retinal diseases” (InnoRx, Inc., priority 2002, published 2005)", "origin": "cited, not measured here", "details": "72 hours after injection into the vitreous; animal studies"}
{"molecule": "C[C@]12C=CC(=O)C=C1CC[C@H]1[C@@H]3C[C@@H](O)[C@](O)(C(=O)CO)[C@@]3(C)C[C@H](O)[C@@]12F", "note": "[triamcinolone]", "values": [{"measurement": "share of the triamcinolone present in the vitreous that was associated with other tissues including the retina, pigment epithelium, and sclera", "result": "less than 1%"}]}
